Results: patent publication US4000299A, “1-(Imidazol-1-yl)-1-[4-(4-chlorophenyl)phenoxy]-3,3-dimethylbutan-2-one, its salts and a process for their use” (Bayer Aktiengesellschaft, priority 1974, dated 1976)
≈ marks a conversion by molar mass, not a printed value. Read-outs that look alike come from different tables or passages of the source.

How the values were obtained:
Trich. ment. = experiment: series dilution test, MIC; assay type: cell-based
Candida albicans [1] = experiment: series dilution test, MIC; assay type: cell-based
Aspergillus spec. = experiment: series dilution test, MIC; assay type: cell-based
Microsporon felinum = experiment: series dilution test, MIC; assay type: cell-based; settings: Table B
[2] = pharmacokinetics after oral administration; assay type: in vivo; settings: serum, 50 mg/kg of body weight, mice and guinea pigs, read-out: serum peak concentrations
Experimental: c. Guideline data on the pharmacokinetics after oral administration. The preparations claimed are resorbed well on oral administration to mice and guinea pigs and after doses of 50 mg/kg of body weight give serum peak concentrations of 4-6 γ/ml for the case of the hydrochloride.

Microsporon canis = experiment: series dilution test, MIC; assay type: cell-based; settings: for MIC: read-out: MIC values
Torulopsis glab. = experiment: series dilution test, MIC; assay type: cell-based; settings: Table A
Cryptococcus neof. = experiment: series dilution test, MIC; assay type: cell-based; settings: Table A
Sporothrix Schenckii = experiment: series dilution test, MIC; assay type: cell-based; settings: Table A
Coccidioides immitis = experiment: microbe, parasite or virus in culture; assay type: cell-based; settings: for MIC: read-out: MIC values; for MIC values: Table A
Pityrosporum ovale = experiment: series dilution test, MIC; assay type: cell-based; settings: Table A; for MIC: Malassezia furfur
Staph. aureus = experiment: series dilution test, MIC; assay type: cell-based; settings: Table A; for MIC: Staphylococcus aureus
Trichomonas vaginalis = experiment: series dilution test, MIC; assay type: cell-based; settings: Table A
Candida albicans [3] = experiment: experimental candidosis in mice, oral administration; assay type: in vivo, White mice of the CF1 SPF strain
Experimental: I. on candidosis in mice.
White mice of the CF1 SPF strain are infected with 1-3 × 10^6 Candida albicans cells intravenously by puncture of the tail vein. Untreated control animals die from the 3rd to the 6th day after infection as a result of the candidosis of the organs which develops. If the preparations claimed are given orally in doses of 2 × 6.25 - 2 × 150 mg/kg of body weight, starting from the day of infection and up to the 5th day after infection, the following survival rates are observed: […]

[4] = 2 × 6.25 mg/kg of body weight, 6.25 mg/kg
[5] = 2 × 12.5 mg/kg of body weight, 12.5 mg/kg
[6] = 2 × 25 mg/kg of body weight, 25 mg/kg

SMILES: O=C(c1ccccc1)C(Oc1c(Cl)cccc1Cl)n1ccnc1 (stereo not drawn)
- MIC (Trich. ment.; Table B, Trichophyton ment.): 4 µg/mL (≈ 11.5 µM)
- MIC (Candida albicans [1]; Table B): 4 µg/mL (≈ 11.5 µM)
- MIC (Aspergillus spec.; Table B): 100 µg/mL (≈ 288 µM)
- MIC (Microsporon felinum): 40 µg/mL (≈ 115 µM)

SMILES: OC(O)(c1ccccc1)C(Oc1cccc(Cl)c1)n1ccnc1 (stereo not drawn)
- MIC (Trich. ment.; Table B, Trichophyton ment.): 4 µg/mL (≈ 12.1 µM)
- MIC (Candida albicans [1]; Table B): 4 µg/mL (≈ 12.1 µM)
- MIC (Aspergillus spec.; Table B): 40 µg/mL (≈ 121 µM)
- MIC (Microsporon felinum): 40 µg/mL (≈ 121 µM)

SMILES: O=C(c1ccccc1)C(Oc1ccc(Cl)cc1)(c1ccccc1)n1ccnc1 (stereo not drawn)
- MIC (Trich. ment.; Table B, Trichophyton ment.): 10 µg/mL (≈ 25.7 µM)
- MIC (Candida albicans [1]; Table B): 10 µg/mL (≈ 25.7 µM)
- MIC (Aspergillus spec.; Table B): 10 µg/mL (≈ 25.7 µM)
- MIC (Microsporon felinum): 40 µg/mL (≈ 103 µM)

SMILES: O=C(c1ccccc1)C(Oc1cccc(Cl)c1)n1ccnc1 (stereo not drawn)
- MIC (Trich. ment.; Table B, Trichophyton ment.): 4 µg/mL (≈ 12.8 µM)
- MIC (Candida albicans [1]; Table B): 10 µg/mL (≈ 32 µM)
- MIC (Aspergillus spec.; Table B): 40 µg/mL (≈ 128 µM)
- MIC (Microsporon felinum): 40 µg/mL (≈ 128 µM)

SMILES: CC(C)(C)C(=O)C(Cn1ccnc1)Oc1ccc(Cl)cc1 (stereo not drawn)
- MIC (Trich. ment.; Table B, Trichophyton ment.): 4 µg/mL (≈ 13 µM)
- MIC (Candida albicans [1]; Table B): 4 µg/mL (≈ 13 µM)
- MIC (Aspergillus spec.; Table B): 8 µg/mL (≈ 26.1 µM)

SMILES: CC(C)(C)C(=O)C(Cn1ccnc1)Oc1ccc(Br)cc1 (stereo not drawn)
- MIC (Trich. ment.; Table B, Trichophyton ment.): 8 µg/mL (≈ 22.8 µM)
- MIC (Candida albicans [1]; Table B): 4 µg/mL (≈ 11.4 µM)
- MIC (Aspergillus spec.; Table B): 4 µg/mL (≈ 11.4 µM)

SMILES: CC(C)(C)C(=O)C(Cn1ccnc1)Oc1ccccc1-c1ccccc1 (stereo not drawn)
- MIC (Trich. ment.; Table B, Trichophyton ment.): 8 µg/mL (≈ 23 µM)
- MIC (Candida albicans [1]; Table B): 4 µg/mL (≈ 11.5 µM)
- MIC (Aspergillus spec.; Table B): 8 µg/mL (≈ 23 µM)

SMILES: CC(C)(C)C(=O)C(Cn1ccnc1)Oc1ccc(F)cc1 (stereo not drawn)
- MIC (Trich. ment.; Table B, Trichophyton ment.): 8 µg/mL (≈ 27.6 µM)
- MIC (Candida albicans [1]; Table B): 4 µg/mL (≈ 13.8 µM)
- MIC (Aspergillus spec.; Table B): 4 µg/mL (≈ 13.8 µM)

SMILES: CC(C)(C)C(=O)C(Oc1ccc(-c2ccc(Cl)cc2)cc1)n1ccnc1.Cl (stereo not drawn) [Example 1, 1-(imidazol-1-yl)-1-[4-(4-chlorophenyl)phenoxy]-3,3-dimethyl-butan-2-one hydrochloride]
- Cmax [2]: 4000 to 6000 ng/mL

SMILES: COC1=CC(=O)C[C@@H](C)[C@]12Oc1c(Cl)c(OC)cc(OC)c1C2=O [Griseofulvin, griseofulvin]
- MIC (Trich. ment.; Table A, Trich. ment.): 5 to 10 µg/mL (≈ 14.2 to 28.3 µM)
- MIC (Microsporon canis): 5 to 10 µg/mL (≈ 14.2 to 28.3 µM)
- MIC (Candida albicans [1]; Table A): > 100 µg/mL
- MIC (Torulopsis glab.): > 100 µg/mL
- MIC (Cryptococcus neof.): > 100 µg/mL
- MIC (Aspergillus spec.; Table A): 40 to 100 µg/mL (≈ 113 to 283 µM)
- MIC (Sporothrix Schenckii; Sporothrix schenckii): > 100 µg/mL
- MIC (Coccidioides immitis): > 100 µg/mL
- MIC (Pityrosporum ovale): > 100 µg/mL
- MIC (Staph. aureus): > 100 µg/mL
- MIC (Trichomonas vaginalis): > 1000 µg/mL

SMILES: C[C@@H]1[C@H](O)[C@@H](C)/C=C/C=C/CC/C=C/C=C/C=C/C=C/C(O[C@H]2O[C@H](C)[C@@H](O)[C@H](N)[C@@H]2O)CC2O[C@](O)(CC(O)C(O)CCC(O)CC(O)CC(O)CC(=O)O[C@H]1C)CC(O)C2C(=O)O (stereo partly drawn) [Nystatin, nystatin]
- MIC values (Trich. ment.; Table A, Trich. ment.): 20 µg/mL (≈ 21.6 µM)
- MIC values (Microsporon canis; Table A, Microsporon canis): 20 to 40 µg/mL
- MIC values (Candida albicans [1]; Table A): 5 µg/mL (≈ 5.4 µM)
- MIC values (Torulopsis glab.): 5 µg/mL (≈ 5.4 µM)
- MIC values (Cryptococcus neof.): 4 to 10 µg/mL
- MIC values (Aspergillus spec.; Table A): 40 to 100 µg/mL
- MIC values (Sporothrix Schenckii): 40 µg/mL (≈ 43.2 µM)
- MIC values (Coccidioides immitis): 40 µg/mL (≈ 43.2 µM)
- MIC values (Staph. aureus): > 100 µg/mL
- MIC values (Trichomonas vaginalis): > 1,000 γ/ml
- Survival rates on the 6th day after infection (Candida albicans [3]; 2 × 6.25 mg/kg of body weight): < 10%
- Survival rates on the 6th day after infection (Candida albicans [3]; 2 × 12.5 mg/kg of body weight): < 10%
- Survival rates on the 6th day after infection (Candida albicans [3]; 2 × 25 mg/kg of body weight): < 10%
- Survival rates on the 6th day after infection (Candida albicans [3]; 2 × 50 mg/kg of body weight): < 10%
- Survival rates on the 6th day after infection (Candida albicans [3]; 2 × 100 mg/kg of body weight): 30%
- Survival rates on the 6th day after infection (Candida albicans [3]; 2 × 150 mg/kg of body weight): 50%

SMILES: CC(C)(C)C(=O)C(Oc1ccc(-c2ccc(Cl)cc2)cc1)n1ccnc1 (stereo not drawn) [drawing 4]
- MIC (Trich. ment.; Table A, Trich. ment.): < 1 µg/mL
- MIC (Microsporon canis; Table A, Microsporon canis): < 1 µg/mL
- MIC (Candida albicans [1]; Table A): 2 to 4 µg/mL (≈ 5.42 to 10.8 µM)
- MIC (Torulopsis glab.): 2 µg/mL (≈ 5.42 µM)
- MIC (Cryptococcus neof.): 1 to 2 µg/mL (≈ 2.71 to 5.42 µM)
- MIC (Aspergillus spec.; Table A): < 1 µg/mL
- MIC values (Sporothrix Schenckii): 0.1 µg/mL (≈ 0.271 µM)
- MIC (Coccidioides immitis): 0.1 µg/mL (≈ 0.271 µM)
- MIC (Pityrosporum ovale): < 1 µg/mL
- MIC (Staph. aureus): 8 µg/mL (≈ 21.7 µM)
- MIC (Trichomonas vaginalis): 250 µg/mL (≈ 678 µM)

SMILES: CC(C)(C)C(=O)C(Oc1ccc(-c2ccc(Cl)cc2)cc1)n1ccnc1 (stereo not drawn) [drawing 5]
- MIC values (Trich. ment.; Table A, Trich. ment.): < 1 µg/mL
- MIC values (Microsporon canis; Table A, Microsporon canis): < 1 µg/mL
- MIC values (Candida albicans [1]; Table A): 2 µg/mL (≈ 5.42 µM)
- MIC values (Torulopsis glab.): 2 µg/mL (≈ 5.42 µM)
- MIC values (Cryptococcus neof.): 1 to 2 µg/mL
- MIC values (Aspergillus spec.; Table A): < 1 µg/mL
- MIC values (Sporothrix Schenckii): 0.5 µg/mL (≈ 1.36 µM)
- MIC values (Coccidioides immitis): 0.1 µg/mL (≈ 0.271 µM)
- MIC values (Pityrosporum ovale): < 1 µg/mL
- MIC values (Staph. aureus): 4 µg/mL (≈ 10.8 µM)
- MIC values (Trichomonas vaginalis): 250 µg/mL (≈ 678 µM)

SMILES: CC(C)(C)C(=O)C(Oc1ccc(-c2ccc(Cl)cc2)cc1)n1ccnc1 (stereo not drawn) [drawing 14]
- Survival rates on the 6th day after infection (Candida albicans [3]; [4]): 55%
- Survival rates on the 6th day after infection (Candida albicans [3]; [5]): 70%
- Survival rates on the 6th day after infection (Candida albicans [3]; [6]): 80%
- Survival rates on the 6th day after infection (Candida albicans [3]; 2 × 50 mg/kg of body weight): 100%
- Survival rates on the 6th day after infection (Candida albicans [3]; 2 × 100 mg/kg of body weight): 100%
- Survival rates on the 6th day after infection (Candida albicans [3]; 2 × 150 mg/kg of body weight): 100%

SMILES: CC(C)(C)C(=O)C(Oc1ccc(-c2ccc(Cl)cc2)cc1)n1ccnc1 (stereo not drawn) [drawing 15]
- Survival rates on the 6th day after infection (Candida albicans [3]; [4]): 95%
- Survival rates on the 6th day after infection (Candida albicans [3]; [5]): 95%
- Survival rates on the 6th day after infection (Candida albicans [3]; [6]): 100%
- Survival rates on the 6th day after infection (Candida albicans [3]; 2 × 50 mg/kg of body weight): 100%
- Survival rates on the 6th day after infection (Candida albicans [3]; 2 × 100 mg/kg of body weight): 100%
- Survival rates on the 6th day after infection (Candida albicans [3]; 2 × 150 mg/kg of body weight): 100%
